Assays:
[1] = biological target: T1, 5-HT1A receptor (rat hippocampus) (Rattus norvegicus, UniProt P19327); experiment: Radioligand binding assay, serotoninergic 5-HT1A receptors; details: binding assay result in %, Table 5a;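 also: test compound at 1 µM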
T1 construct: hippocampus; from tissue; host or cells: rat hippocampus
T1 sequence (P19327 1-422): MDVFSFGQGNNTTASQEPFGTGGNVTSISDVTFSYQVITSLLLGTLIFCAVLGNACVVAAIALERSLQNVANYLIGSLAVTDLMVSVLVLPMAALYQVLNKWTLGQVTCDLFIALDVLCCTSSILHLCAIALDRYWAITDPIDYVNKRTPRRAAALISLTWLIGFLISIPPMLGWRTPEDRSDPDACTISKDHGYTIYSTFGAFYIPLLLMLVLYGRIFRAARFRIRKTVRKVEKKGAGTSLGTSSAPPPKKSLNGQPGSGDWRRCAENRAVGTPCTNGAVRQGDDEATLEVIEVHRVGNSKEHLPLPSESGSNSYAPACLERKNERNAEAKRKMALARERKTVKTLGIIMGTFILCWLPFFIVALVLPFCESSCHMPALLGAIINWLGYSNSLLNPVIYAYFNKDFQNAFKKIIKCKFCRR

[2] = biological target: T2, serotonin transporter (SERT) (Homo sapiens, UniProt P31645); experiment: Radioligand binding assay, serotonin transporter (SERT); details: binding assay, test compound 1×10^−6 M
T2 construct: expressed in transfected cells; host or cells: CHO cells
Outline: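 Radioligand competition binding with scintillation detection; specific binding is total minus binding under excess unlabelled ligand. Reported as % of control specific binding or % inhibition; IC50 from Hill-equation non-linear regression of competition curves, and Ki via Cheng-Prusoff using radioligand concentration and Scatchard-derived KD.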

5-HT6 receptor = biological target: T3, 5-HT6 receptor (Homo sapiens, UniProt P50406); experiment: Radioligand binding assay, serotoninergic 5-HT6 receptors; details: binding assay result in %, Table 5a;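 also: test compound at 1 µM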
T3 construct: purchased PerkinElmer
Outline: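 Values are Ki from Cheng–Prusoff, taking IC50 from Hill nonlinear regression of competition curves and KD from a Scatchard plot. Specific binding was total minus binding with excess unlabelled ligand. Radioligand displacement was detected by scintillation counting, and data were also reported as percent of control specific binding.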

5-HT7 receptor = biological target: T4, 5-HT7 receptor (Homo sapiens, UniProt P34969); experiment: Radioligand binding assay, serotoninergic 5-HT7 receptors; details: binding assay result in %, Table 5a;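 also: test compound at 1 µM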
T4 construct: purchased PerkinElmer
Outline: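 Competition binding at human 5-HT7 receptors with a radioligand, detected by scintillation counting; non-specific binding was defined with excess unlabelled ligand. IC50 came from Hill-equation fits of competition curves, and Ki from Cheng–Prusoff using radioligand concentration and Scatchard-derived KD.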

[3] = biological target: dopaminergic receptors D2 (Homo sapiens, UniProt P14416); experiment: Radioligand binding assay, dopaminergic D2 receptors; details: binding assay, test compound 1×10^−6 M
Outline: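 Radioligand displacement was measured by scintillation counting, with non-specific binding defined in the presence of excess unlabelled ligand. Competition curves were fitted to the Hill equation to give IC50, and Ki was derived by the Cheng–Prusoff equation.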

[4] = test system: α1 adrenergic receptors (rat cerebral cortex); experiment: Radioligand binding assay, adrenergic α1 receptors; details: test compound 1×10^−6 M
Outline: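 Values derive from radioligand displacement, with non-specific binding defined by excess cold ligand and detection by scintillation. Hill-fit IC50s were converted to Ki via Cheng-Prusoff using Scatchard-derived Kd; percent inhibition of control specific binding also reported.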

5-HT2A receptor = biological target: T5, 5-HT2A receptor (Homo sapiens, UniProt P28223); experiment: Radioligand binding assay, serotoninergic 5-HT2A receptors; details: binding assay result in %, Table 5a
T5 construct: purchased PerkinElmer
Outline: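 Radioligand competition binding with scintillation counting; nonspecific binding defined by excess unlabelled ligand. Data as percent inhibition of control specific binding. IC50 by Hill-equation fit of competition curves; Ki by Cheng-Prusoff, with radioligand Kd from Scatchard plot.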

[5] = biological target: dopaminergic receptors D3 (Homo sapiens, UniProt P35462); experiment: Radioligand binding assay, dopaminergic D3 receptors; details: test compound 1×10^−6 M
Outline: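 Competition radioligand binding at human D2, D3 and D4.4 receptors, detected by scintillation counting; nonspecific binding defined with excess unlabelled ligand. Results as percent inhibition of control specific binding; IC50 by Hill-equation nonlinear regression; Ki via Cheng-Prusoff, with radioligand KD from Scatchard plot.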

T4 sequence (P34969 whole entry): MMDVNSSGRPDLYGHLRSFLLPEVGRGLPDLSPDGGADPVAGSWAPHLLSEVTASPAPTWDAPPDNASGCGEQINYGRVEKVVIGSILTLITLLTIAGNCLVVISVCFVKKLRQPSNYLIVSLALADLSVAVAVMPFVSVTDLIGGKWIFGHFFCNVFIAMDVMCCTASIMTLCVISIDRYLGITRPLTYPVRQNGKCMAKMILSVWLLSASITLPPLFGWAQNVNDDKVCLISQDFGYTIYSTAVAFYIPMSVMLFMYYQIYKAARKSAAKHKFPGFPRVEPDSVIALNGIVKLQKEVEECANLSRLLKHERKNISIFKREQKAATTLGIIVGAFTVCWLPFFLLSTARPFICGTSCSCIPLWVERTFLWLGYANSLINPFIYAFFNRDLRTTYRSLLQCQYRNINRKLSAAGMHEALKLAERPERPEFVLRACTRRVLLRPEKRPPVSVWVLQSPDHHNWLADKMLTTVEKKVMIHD
Chain of dopaminergic receptors D2 (P14416 whole entry): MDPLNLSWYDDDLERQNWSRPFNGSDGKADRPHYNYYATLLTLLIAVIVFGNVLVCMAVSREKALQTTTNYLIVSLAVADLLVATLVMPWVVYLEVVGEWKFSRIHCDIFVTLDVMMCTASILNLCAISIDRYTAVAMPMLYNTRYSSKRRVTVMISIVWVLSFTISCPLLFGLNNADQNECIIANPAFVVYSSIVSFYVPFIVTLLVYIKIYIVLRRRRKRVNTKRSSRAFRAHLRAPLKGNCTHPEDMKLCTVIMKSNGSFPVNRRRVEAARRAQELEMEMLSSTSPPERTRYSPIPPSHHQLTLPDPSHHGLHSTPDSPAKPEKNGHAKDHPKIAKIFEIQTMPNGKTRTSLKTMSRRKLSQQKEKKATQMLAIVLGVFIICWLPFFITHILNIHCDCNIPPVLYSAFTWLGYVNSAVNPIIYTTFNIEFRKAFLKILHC
T3 sequence (P50406 whole entry): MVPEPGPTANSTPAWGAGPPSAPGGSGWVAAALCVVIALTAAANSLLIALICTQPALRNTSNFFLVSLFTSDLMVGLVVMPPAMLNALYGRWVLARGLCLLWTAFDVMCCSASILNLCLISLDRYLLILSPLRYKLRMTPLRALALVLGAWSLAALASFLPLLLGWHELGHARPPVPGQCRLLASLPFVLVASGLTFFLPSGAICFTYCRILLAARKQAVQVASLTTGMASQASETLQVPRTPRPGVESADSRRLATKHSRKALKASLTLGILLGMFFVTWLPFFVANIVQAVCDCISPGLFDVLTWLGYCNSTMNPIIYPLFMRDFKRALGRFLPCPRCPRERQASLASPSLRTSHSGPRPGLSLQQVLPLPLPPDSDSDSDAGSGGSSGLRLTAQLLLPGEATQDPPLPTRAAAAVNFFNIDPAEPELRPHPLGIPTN
Chain of dopaminergic receptors D3 (P35462 whole entry): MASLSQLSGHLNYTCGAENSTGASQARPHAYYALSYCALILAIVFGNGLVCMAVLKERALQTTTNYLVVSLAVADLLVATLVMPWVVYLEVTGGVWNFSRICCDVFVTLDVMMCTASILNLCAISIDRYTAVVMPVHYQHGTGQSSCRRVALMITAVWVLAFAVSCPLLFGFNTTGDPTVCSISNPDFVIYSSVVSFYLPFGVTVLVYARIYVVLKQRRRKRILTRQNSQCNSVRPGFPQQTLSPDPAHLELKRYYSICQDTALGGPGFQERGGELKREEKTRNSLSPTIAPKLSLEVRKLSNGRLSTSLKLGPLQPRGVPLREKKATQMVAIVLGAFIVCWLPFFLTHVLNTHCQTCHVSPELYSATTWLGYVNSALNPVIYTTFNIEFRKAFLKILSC
T2 sequence (P31645 whole entry): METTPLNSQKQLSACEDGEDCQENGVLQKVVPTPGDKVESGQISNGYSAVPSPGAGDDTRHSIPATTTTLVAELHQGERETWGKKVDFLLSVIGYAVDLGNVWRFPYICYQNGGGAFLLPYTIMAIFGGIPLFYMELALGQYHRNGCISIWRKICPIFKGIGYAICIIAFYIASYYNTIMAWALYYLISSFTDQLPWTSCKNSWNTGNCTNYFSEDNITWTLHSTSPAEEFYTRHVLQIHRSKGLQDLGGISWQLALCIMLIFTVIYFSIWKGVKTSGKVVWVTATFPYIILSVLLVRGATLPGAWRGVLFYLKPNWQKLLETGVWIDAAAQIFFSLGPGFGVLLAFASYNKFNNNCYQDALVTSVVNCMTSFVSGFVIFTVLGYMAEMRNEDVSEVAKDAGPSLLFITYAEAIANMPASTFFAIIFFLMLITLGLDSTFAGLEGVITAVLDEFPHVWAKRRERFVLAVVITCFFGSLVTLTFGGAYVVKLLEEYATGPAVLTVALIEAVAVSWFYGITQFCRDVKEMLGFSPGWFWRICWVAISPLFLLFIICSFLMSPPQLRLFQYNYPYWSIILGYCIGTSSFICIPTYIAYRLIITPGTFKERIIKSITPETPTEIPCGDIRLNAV
T5 sequence (P28223 whole entry): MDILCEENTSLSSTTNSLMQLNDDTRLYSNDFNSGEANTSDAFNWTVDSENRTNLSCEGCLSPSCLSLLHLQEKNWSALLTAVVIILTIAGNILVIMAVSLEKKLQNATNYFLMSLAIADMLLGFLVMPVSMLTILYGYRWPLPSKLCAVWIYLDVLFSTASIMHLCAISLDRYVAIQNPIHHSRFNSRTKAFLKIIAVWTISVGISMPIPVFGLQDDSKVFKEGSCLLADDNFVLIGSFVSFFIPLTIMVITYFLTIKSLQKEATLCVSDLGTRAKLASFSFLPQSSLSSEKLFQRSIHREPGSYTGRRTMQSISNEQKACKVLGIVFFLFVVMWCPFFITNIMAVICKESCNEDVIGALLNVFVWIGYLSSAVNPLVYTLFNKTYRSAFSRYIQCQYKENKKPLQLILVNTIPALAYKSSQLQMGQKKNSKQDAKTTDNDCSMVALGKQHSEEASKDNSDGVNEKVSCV

Compound: 3,4-Dichloro-N-[1-[3-(6-fluoro-1,2-benzoxazol-3-yl)propyl]pyrrolidin-3-yl]benzenesulphonamide [Compound 211]
- 5-HT1A [%] [1]: 32%
- SERT [%] [2]: 4%
- 5-HT6 [%] (5-HT6 receptor): 92%
- 5-HT7 [%] (5-HT7 receptor): 107%
- D2 [%] [3]: 93%
- α1 [%] [4]: 90%
- 5-HT2A [%] (5-HT2A receptor): 100%
- D3 [%] [5]: 63%

Compound: Cn1ccc2cc(S(=O)(=O)NCC3CCN(CCOc4cccc5ccccc45)C3)ccc21 (centres unmarked) [Compound 274, 1-Methyl-N-[[1-[2-(1-naphthyloxy)ethyl]pyrrolidin-3-yl]methyl]indole-5-sulphonamide]
- inhibition at 1 µM [1]: 77%
- inhibition at 1 µM [2]: 109%
- inhibition at 1 µM (5-HT6 receptor): 97%
- inhibition at 1 µM (5-HT7 receptor): 86%
- inhibition at 1 µM [3]: 62%
- α1 [%] [4]: 41%
- inhibition at 1 µM (5-HT2A receptor): 89%
- inhibition at 1 µM [5]: 81%

Compound: O=S(=O)(NCC1CN(CCOc2cccc3ccccc23)C1)c1ccc(F)c(F)c1 [Compound 173, 3,4-Difluoro-N-[[1-[2-(1-naphthyloxy)ethyl]azetidin-3-yl]methyl]-benzenesulphonamide]
- inhibition at 1 µM [1]: 83%
- inhibition at 1 µM [2]: 50%
- inhibition at 1 µM (5-HT6 receptor): 91%
- inhibition at 1 µM (5-HT7 receptor): 105%
- inhibition at 1 µM [3]: 59%
- α1 [%] [4]: 56%
- inhibition at 1 µM (5-HT2A receptor): 73%
- inhibition at 1 µM [5]: 99%

Compound: O=S(=O)(NCC1CN(CCOc2cccc3c2OCCO3)C1)c1ccc(Cl)cc1 [Compound 179, 4-Chloro-N-[[1-[2-(2,3-dihydro-1,4-benzodioxin-5-yloxy)ethyl]azetidin-3-yl]methyl]benzenesulphonamide]
- inhibition at 1 µM [1]: 92%
- inhibition at 1 µM [2]: -8%
- inhibition at 1 µM (5-HT6 receptor): -15%
- inhibition at 1 µM (5-HT7 receptor): 90%
- inhibition at 1 µM [3]: 6%
- α1 [%] [4]: 61%
- inhibition at 1 µM (5-HT2A receptor): 57%
- inhibition at 1 µM [5]: 40%

Compound: Cn1ccc2cc(S(=O)(=O)NCC3CN(CCOc4cccc5c4OCCO5)C3)ccc21 [Compound 187, N-[[1-[2-(2,3-Dihydro-1,4-benzodioxin-5-yloxy)ethyl]azetidin-3-yl]methyl]-1-methyl-indole-5-sulphonamide]
- inhibition at 1 µM [1]: 78%
- inhibition at 1 µM [2]: 69%
- inhibition at 1 µM (5-HT6 receptor): 44%
- inhibition at 1 µM (5-HT7 receptor): 98%
- inhibition at 1 µM [3]: 56%
- α1 [%] [4]: 88%
- inhibition at 1 µM (5-HT2A receptor): 93%
- inhibition at 1 µM [5]: 48%

Compound: O=C1Cc2cc(S(=O)(=O)NCC3CN(CCOc4cccc5c4OCCO5)C3)ccc2N1 [Compound 189, N-[[1-[2-(2,3-Dihydro-1,4-benzodioxin-5-yloxy)ethyl]azetidin-3-yl]methyl]-2-oxo-indoline-5-sulphonamide]
- inhibition at 1 µM [1]: 112%
- inhibition at 1 µM [2]: 41%
- inhibition at 1 µM (5-HT6 receptor): 46%
- inhibition at 1 µM (5-HT7 receptor): 90%
- inhibition at 1 µM [3]: 71%
- α1 [%] [4]: 71%
- inhibition at 1 µM (5-HT2A receptor): 74%
- inhibition at 1 µM [5]: 61%

Compound: O=S(=O)(NC1CCN(CCOc2cccc3c2OCCO3)C1)c1cccc2ccccc12 (centres unmarked) [Compound 98, N-[1-[2-(2,3-Dihydro-1,4-benzodioxan-8-yloxy)ethyl]pyrrolidin-3-yl]-naphthalene-1-sulphonamide]
- 5-HT1A [%] [1]: 92%
- SERT [%] [2]: 16%
- 5-HT6 [%] (5-HT6 receptor): 32%
- 5-HT7 [%] (5-HT7 receptor): 100%
- D2 [%] [3]: 62%
- α1 [%] [4]: 78%
- 5-HT2A [%] (5-HT2A receptor): 87%
- D3 [%] [5]: 67%

Compound: O=S(=O)(NCC1CN(CCOc2cccc3c2OCCO3)C1)c1ccc(Br)cc1 [Compound 185, 4-Bromo-N-[[1-[2-(2,3-dihydro-1,4-benzodioxin-5-yloxy)ethyl]azetidin-3-yl]methyl]benzenesulphonamide]
- inhibition at 1 µM [1]: 88%
- inhibition at 1 µM [2]: 23%
- inhibition at 1 µM (5-HT6 receptor): 23%
- inhibition at 1 µM (5-HT7 receptor): 90%
- inhibition at 1 µM [3]: 25%
- α1 [%] [4]: 34%
- inhibition at 1 µM (5-HT2A receptor): 39%
- inhibition at 1 µM [5]: 0%

Compound: O=S(=O)(NC1CCN(CCOc2cccc3[nH]ccc23)C1)c1ccccc1 (centres unmarked) [Compound 51, N-[1-[2-(1H-Indol-4-yloxy)ethyl]pyrrolidin-3-yl]benzenesulphonamide]
- inhibition at 1 µM [1]: 91%
- inhibition at 1 µM [2]: 6%
- inhibition at 1 µM (5-HT6 receptor): 10%
- inhibition at 1 µM (5-HT7 receptor): 101%
- inhibition at 1 µM [3]: 54%
- α1 [%] [4]: 77%
- inhibition at 1 µM (5-HT2A receptor): 67%
- inhibition at 1 µM [5]: 103%

Compound: O=S(=O)(NC1CCN(CCCc2noc3cc(F)ccc23)C1)c1ccc2c(c1)OCO2 (centres unmarked) [Compound 194, N-[1-[3-(6-Fluoro-1,2-benzoxazol-3-yl)propyl]pyrrolidin-3-yl]-1,3-benzo-dioxole-5-sulphonamide]
- inhibition at 1 µM [1]: 63%
- inhibition at 1 µM [2]: 1%
- inhibition at 1 µM (5-HT6 receptor): 53%
- inhibition at 1 µM (5-HT7 receptor): 82%
- inhibition at 1 µM [3]: 19%
- α1 [%] [4]: 96%
- inhibition at 1 µM (5-HT2A receptor): 29%
- inhibition at 1 µM [5]: 48%

Compound: O=S(=O)(NCC1CN(CCOc2cccc3ccccc23)C1)c1cc2ccc(Cl)cc2s1 [Compound 164, 6-Chloro-N-[[1-[2-(1-naphthyloxy)ethyl]azetidin-3-yl]methyl]-benzothiophene-2-sulphonamide]
- inhibition at 1 µM [1]: 83%
- inhibition at 1 µM [2]: 34%
- inhibition at 1 µM (5-HT6 receptor): 94%
- inhibition at 1 µM (5-HT7 receptor): 92%
- inhibition at 1 µM [3]: 78%
- α1 [%] [4]: 13%
- inhibition at 1 µM (5-HT2A receptor): 102%
- inhibition at 1 µM [5]: 98%

Compound: O=S(=O)(NCC1CCN(CCOc2cccc3ccccc23)C1)c1cccc2ccccc12 (centres unmarked) [Compound 273, N-[[1-[2-(1-Naphthyloxy)ethyl]pyrrolidin-3-yl]methyl]naphthalene-1-sulphonamide]
- inhibition at 1 µM [1]: 85%
- inhibition at 1 µM [2]: 64%
- inhibition at 1 µM (5-HT6 receptor): 90%
- inhibition at 1 µM (5-HT7 receptor): 77%
- inhibition at 1 µM [3]: 58%
- α1 [%] [4]: 25%
- inhibition at 1 µM (5-HT2A receptor): 95%
- inhibition at 1 µM [5]: 90%

Compound: O=S(=O)(NCC1CCN(CCOc2cccc3c2OCCO3)C1)c1ccc(Cl)cc1 (centres unmarked) [Compound 289, 4-Chloro-N-[[1-[2-(2,3-dihydro-1,4-benzodioxin-5-yloxy)ethyl]pyrrolidin-3-yl]methyl]benzenesulphonamide]
- inhibition at 1 µM [1]: 99%
- inhibition at 1 µM [2]: 53%
- inhibition at 1 µM (5-HT6 receptor): -1%
- inhibition at 1 µM (5-HT7 receptor): 81%
- inhibition at 1 µM [3]: -19%
- α1 [%] [4]: 46%
- inhibition at 1 µM (5-HT2A receptor): 61%
- inhibition at 1 µM [5]: 41%

Compound: O=S(=O)(NCC1CN(CCOc2cccc3c2OCCO3)C1)c1ccc(Cl)s1 [Compound 192, 5-Chloro-N-[[1-[2-(2,3-dihydro-1,4-benzodioxin-5-yloxy)ethyl]azetidin-3-yl]methyl]thiophene-2-sulphonamide]
- inhibition at 1 µM [1]: 79%
- inhibition at 1 µM [2]: 38%
- inhibition at 1 µM (5-HT6 receptor): 30%
- inhibition at 1 µM (5-HT7 receptor): 97%
- inhibition at 1 µM [3]: 42%
- α1 [%] [4]: 88%
- inhibition at 1 µM (5-HT2A receptor): 86%
- inhibition at 1 µM [5]: 70%

Compound: O=S(=O)(NCC1CN(CCOc2nsc3ccccc23)C1)c1ccc2ccccc2c1 [Compound 162, N-[[1-[2-(1,2-Benzothiazol-3-yloxy)ethyl]azetidin-3-yl]methyl]-naphthalene-2-sulphonamide]
- inhibition at 1 µM [1]: 85%
- inhibition at 1 µM [2]: -9%
- inhibition at 1 µM (5-HT6 receptor): -56%
- inhibition at 1 µM (5-HT7 receptor): 91%
- inhibition at 1 µM [3]: 61%
- α1 [%] [4]: 83%
- inhibition at 1 µM (5-HT2A receptor): -17%
- inhibition at 1 µM [5]: 100%

Compound: O=S(=O)(NCC1CCN(CCOc2cccc3c2OCCO3)C1)c1ccc(Cl)s1 (centres unmarked) [Compound 316, 5-Chloro-N-[[1-[2-(2,3-dihydro-1,4-benzodioxin-5-yloxy)ethyl]pyrrolidin-3-yl]-methyl]thiophene-2-sulphonamide]
- inhibition at 1 µM [1]: 74%
- inhibition at 1 µM [2]: 8%
- inhibition at 1 µM (5-HT6 receptor): 36%
- inhibition at 1 µM (5-HT7 receptor): 87%
- inhibition at 1 µM [3]: -2%
- α1 [%] [4]: 66%
- inhibition at 1 µM (5-HT2A receptor): 82%
- inhibition at 1 µM [5]: 36%

— patent US20140135310A1, “SULPHONAMIDE DERIVATIVES OF ALICYCLIC AMINES FOR THE TREATMENT OF CENTRAL NERVOUS SYSTEM DISEASES” (Adamed Sp. z o.o., priority 2011, published 2014)
